Test results as given in ChEMBL document CHEMBL4507260 (2021).

Legend:
Conditions in all cases: Compound concentration 1000.0 nM
[1] = target: 5'-AMP-activated protein kinase catalytic subunit alpha-1 (Homo sapiens) (UniProt Q13131)
[2] = system: Phosphatidylinositol 4,5-bisphosphate 3-kinase catalytic subunit alpha isoform (Homo sapiens), P42336 [E545K]
[3] = target: Tyrosine-protein kinase Lck (Homo sapiens) (UniProt P06239)
[4] = system: Phosphatidylinositol 4,5-bisphosphate 3-kinase catalytic subunit alpha isoform (Homo sapiens), P42336 [E542K]
[5] = target: Serine/threonine-protein kinase/endoribonuclease IRE1 (Homo sapiens) (UniProt O75460)
[6] = target: Tyrosine-protein kinase HCK (Homo sapiens) (UniProt P08631)
[7] = target: Serine/threonine-protein kinase 3 (Homo sapiens) (UniProt Q13188)
[8] = system: eIF-2-alpha kinase GCN2 (Homo sapiens), Q9P2K8 [S808G]
[9] = target: Ribosomal protein S6 kinase alpha-6 (Homo sapiens) (UniProt Q9UK32)
[10] = target: Calcium/calmodulin-dependent protein kinase type II subunit beta (Homo sapiens) (UniProt Q13554)
[11] = system: ALK tyrosine kinase receptor (Homo sapiens), Q9UM73 [L1196M]
[12] = target: RAF proto-oncogene serine/threonine-protein kinase (Homo sapiens) (UniProt P04049)
[13] = system: Epidermal growth factor receptor (Homo sapiens), P00533 [G719S]
[14] = target: Serine/threonine-protein kinase D1 (Homo sapiens) (UniProt Q15139)
[15] = target: Serine/threonine-protein kinase Nek5 (Homo sapiens) (UniProt Q6P3R8)
[16] = system: Tyrosine-protein kinase ABL1 (Homo sapiens), P00519 [T315I]
[17] = target: Cyclin-dependent kinase-like 2 (Homo sapiens) (UniProt Q92772)
[18] = target: Phosphorylase b kinase gamma catalytic chain, skeletal muscle/heart isoform (Homo sapiens) (UniProt Q16816)
[19] = target: Serine/threonine-protein kinase Nek9 (Homo sapiens) (UniProt Q8TD19)
[20] = target: Megakaryocyte-associated tyrosine-protein kinase (Homo sapiens) (UniProt P42679)
[21] = target: Serine/threonine-protein kinase PLK3 (Homo sapiens) (UniProt Q9H4B4)
[22] = target: Phosphatidylinositol 3-kinase C2 domain-containing subunit gamma (Homo sapiens) (UniProt O75747)
[23] = target: Tyrosine-protein kinase CSK (Homo sapiens) (UniProt P41240)
[24] = target: Calcium/calmodulin-dependent protein kinase type 1G (Homo sapiens) (UniProt Q96NX5)
[25] = target: Dual specificity tyrosine-phosphorylation-regulated kinase 2 (Homo sapiens) (UniProt Q92630)
[26] = target: Bone morphogenetic protein receptor type-2 (Homo sapiens) (UniProt Q13873)
[27] = target: Vascular endothelial growth factor receptor 3 (Homo sapiens) (UniProt P35916)
[28] = target: Cyclin-G-associated kinase (Homo sapiens) (UniProt O14976)
[29] = target: Maternal embryonic leucine zipper kinase (Homo sapiens) (UniProt Q14680)
[30] = target: Cyclin-dependent kinase 18 (Homo sapiens) (UniProt Q07002)
[31] = target: Ephrin type-A receptor 4 (Homo sapiens) (UniProt P54764)
[32] = target: Serine/threonine-protein kinase pim-2 (Homo sapiens) (UniProt Q9P1W9)
[33] = system: Tyrosine-protein kinase ABL1 (Homo sapiens), P00519 [F317I]
[34] = target: Tyrosine-protein kinase receptor Tie-1 (Homo sapiens) (UniProt P35590)
[35] = target: G protein-coupled receptor kinase 4 (Homo sapiens) (UniProt P32298)
[36] = target: Serine/threonine-protein kinase TAO1 (Homo sapiens) (UniProt Q7L7X3)
[37] = target: Wee1-like protein kinase 2 (Homo sapiens) (UniProt P0C1S8)
[38] = target: Serine/threonine-protein kinase 17B (Homo sapiens) (UniProt O94768)
[39] = target: Ephrin type-B receptor 2 (Homo sapiens) (UniProt P29323)
[40] = system: Tyrosine-protein kinase ABL1 (Homo sapiens), P00519 [E255K]
[41] = target: TRAF2 and NCK-interacting protein kinase (Homo sapiens) (UniProt Q9UKE5)
[42] = target: Discoidin domain-containing receptor 2 (Homo sapiens) (UniProt Q16832)
[43] = target: Cyclin-dependent kinase-like 1 (Homo sapiens) (UniProt Q00532)
[44] = target: Mitogen-activated protein kinase 9 (Homo sapiens) (UniProt P45984)
[45] = target: Insulin-like growth factor 1 receptor (Homo sapiens) (UniProt P08069)

Chain of Serine/threonine-protein kinase 3 (Homo sapiens) (Q13188 whole entry): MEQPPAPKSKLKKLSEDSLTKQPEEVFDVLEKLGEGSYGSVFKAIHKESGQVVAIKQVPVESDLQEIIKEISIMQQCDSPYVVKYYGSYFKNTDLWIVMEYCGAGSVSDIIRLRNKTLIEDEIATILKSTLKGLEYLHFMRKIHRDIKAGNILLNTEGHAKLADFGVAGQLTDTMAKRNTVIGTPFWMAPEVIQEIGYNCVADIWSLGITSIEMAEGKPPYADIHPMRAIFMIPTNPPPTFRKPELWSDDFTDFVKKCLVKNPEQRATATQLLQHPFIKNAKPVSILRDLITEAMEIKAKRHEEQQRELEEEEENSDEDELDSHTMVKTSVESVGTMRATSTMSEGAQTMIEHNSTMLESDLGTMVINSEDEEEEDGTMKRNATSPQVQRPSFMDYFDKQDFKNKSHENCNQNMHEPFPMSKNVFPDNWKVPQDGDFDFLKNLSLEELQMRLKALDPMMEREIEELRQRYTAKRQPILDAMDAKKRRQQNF
Chain of RAF proto-oncogene serine/threonine-protein kinase (Homo sapiens) (P04049 whole entry): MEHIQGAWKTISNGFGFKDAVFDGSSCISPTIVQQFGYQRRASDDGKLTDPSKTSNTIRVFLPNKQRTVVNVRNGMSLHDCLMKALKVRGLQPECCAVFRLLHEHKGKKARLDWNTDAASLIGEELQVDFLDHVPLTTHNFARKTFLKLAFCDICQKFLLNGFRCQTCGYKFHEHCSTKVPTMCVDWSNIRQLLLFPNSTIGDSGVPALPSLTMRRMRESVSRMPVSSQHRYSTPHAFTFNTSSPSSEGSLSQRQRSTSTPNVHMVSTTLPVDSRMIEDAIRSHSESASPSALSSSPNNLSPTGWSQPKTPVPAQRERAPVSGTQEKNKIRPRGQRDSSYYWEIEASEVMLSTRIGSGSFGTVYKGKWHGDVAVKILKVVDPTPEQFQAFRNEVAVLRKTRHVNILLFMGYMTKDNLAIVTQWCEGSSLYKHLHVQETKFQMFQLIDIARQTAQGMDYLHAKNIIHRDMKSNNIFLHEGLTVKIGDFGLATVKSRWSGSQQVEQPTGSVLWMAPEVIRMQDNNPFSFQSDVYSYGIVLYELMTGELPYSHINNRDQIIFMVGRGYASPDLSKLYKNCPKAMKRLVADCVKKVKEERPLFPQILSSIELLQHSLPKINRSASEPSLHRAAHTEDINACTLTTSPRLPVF
Chain of Ephrin type-A receptor 4 (Homo sapiens) (P54764 whole entry): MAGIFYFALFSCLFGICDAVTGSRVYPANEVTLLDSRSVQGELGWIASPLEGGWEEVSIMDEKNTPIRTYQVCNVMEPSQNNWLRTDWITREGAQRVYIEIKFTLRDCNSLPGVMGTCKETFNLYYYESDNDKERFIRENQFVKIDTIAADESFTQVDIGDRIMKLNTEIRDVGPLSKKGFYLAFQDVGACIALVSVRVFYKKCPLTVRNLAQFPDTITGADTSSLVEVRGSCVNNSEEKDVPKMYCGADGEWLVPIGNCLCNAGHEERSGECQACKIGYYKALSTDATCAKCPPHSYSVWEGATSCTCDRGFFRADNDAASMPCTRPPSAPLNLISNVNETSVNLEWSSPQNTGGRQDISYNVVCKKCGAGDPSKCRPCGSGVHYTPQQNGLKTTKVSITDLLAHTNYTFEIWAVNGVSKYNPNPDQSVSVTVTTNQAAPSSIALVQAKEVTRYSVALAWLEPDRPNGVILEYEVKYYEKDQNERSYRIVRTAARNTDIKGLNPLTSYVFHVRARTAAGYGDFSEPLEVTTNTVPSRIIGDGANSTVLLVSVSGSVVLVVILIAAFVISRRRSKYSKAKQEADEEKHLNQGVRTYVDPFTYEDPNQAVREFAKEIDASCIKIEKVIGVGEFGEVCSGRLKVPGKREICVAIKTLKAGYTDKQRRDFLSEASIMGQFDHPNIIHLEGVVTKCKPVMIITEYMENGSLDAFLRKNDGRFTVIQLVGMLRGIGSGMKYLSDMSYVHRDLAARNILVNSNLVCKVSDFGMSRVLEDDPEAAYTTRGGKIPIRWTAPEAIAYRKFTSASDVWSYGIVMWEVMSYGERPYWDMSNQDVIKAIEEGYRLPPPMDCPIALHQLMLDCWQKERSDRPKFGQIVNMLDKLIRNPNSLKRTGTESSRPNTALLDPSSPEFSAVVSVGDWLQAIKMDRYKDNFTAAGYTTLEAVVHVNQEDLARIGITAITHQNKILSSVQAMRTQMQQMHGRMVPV
Chain of Mitogen-activated protein kinase 9 (Homo sapiens) (P45984 whole entry, looked up): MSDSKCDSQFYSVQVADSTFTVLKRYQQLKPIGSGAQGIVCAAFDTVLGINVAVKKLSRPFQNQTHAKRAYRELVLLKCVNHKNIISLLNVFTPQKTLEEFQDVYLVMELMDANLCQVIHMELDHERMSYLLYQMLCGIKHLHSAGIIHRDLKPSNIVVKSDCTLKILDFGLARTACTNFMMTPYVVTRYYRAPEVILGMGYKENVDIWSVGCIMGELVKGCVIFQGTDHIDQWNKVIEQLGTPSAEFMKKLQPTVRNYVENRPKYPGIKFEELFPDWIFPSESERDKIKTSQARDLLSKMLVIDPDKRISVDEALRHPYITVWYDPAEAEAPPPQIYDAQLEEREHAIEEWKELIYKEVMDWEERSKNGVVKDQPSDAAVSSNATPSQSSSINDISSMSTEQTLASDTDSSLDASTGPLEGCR
Chain of Serine/threonine-protein kinase Nek5 (Homo sapiens) (Q6P3R8 whole entry): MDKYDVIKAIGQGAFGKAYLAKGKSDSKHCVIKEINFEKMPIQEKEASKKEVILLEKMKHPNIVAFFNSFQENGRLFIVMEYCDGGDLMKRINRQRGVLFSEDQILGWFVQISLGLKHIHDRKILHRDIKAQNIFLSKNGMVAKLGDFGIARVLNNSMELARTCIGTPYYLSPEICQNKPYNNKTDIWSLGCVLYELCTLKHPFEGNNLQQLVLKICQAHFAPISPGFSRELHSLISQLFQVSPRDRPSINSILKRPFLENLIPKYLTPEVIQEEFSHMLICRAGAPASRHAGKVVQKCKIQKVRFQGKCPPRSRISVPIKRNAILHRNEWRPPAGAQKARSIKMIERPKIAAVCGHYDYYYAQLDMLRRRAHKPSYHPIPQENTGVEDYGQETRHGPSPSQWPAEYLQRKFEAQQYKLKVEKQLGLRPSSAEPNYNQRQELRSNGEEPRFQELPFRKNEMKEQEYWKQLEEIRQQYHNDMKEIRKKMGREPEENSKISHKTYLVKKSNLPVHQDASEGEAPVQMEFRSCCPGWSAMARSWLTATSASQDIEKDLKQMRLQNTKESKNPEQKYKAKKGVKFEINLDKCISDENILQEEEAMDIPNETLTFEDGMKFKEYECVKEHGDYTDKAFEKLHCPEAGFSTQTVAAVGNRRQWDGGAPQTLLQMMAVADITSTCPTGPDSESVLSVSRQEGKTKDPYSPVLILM
Chain of Maternal embryonic leucine zipper kinase (Homo sapiens) (Q14680 whole entry, looked up): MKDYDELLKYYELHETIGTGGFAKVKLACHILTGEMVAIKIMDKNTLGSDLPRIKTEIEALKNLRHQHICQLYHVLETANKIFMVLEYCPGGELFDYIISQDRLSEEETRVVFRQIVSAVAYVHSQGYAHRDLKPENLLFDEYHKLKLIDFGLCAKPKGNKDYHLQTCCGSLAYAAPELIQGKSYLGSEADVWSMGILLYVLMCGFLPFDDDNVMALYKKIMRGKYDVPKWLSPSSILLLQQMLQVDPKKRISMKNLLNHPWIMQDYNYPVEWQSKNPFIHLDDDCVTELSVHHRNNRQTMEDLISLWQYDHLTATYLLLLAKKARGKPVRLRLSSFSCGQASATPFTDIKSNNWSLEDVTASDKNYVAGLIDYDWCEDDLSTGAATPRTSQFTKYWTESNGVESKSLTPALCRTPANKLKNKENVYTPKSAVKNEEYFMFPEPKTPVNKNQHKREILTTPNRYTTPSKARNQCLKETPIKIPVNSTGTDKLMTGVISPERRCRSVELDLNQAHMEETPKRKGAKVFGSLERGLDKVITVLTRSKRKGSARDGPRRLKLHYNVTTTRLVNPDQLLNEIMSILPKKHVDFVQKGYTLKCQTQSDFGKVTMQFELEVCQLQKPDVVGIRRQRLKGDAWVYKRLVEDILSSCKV
Chain of Serine/threonine-protein kinase/endoribonuclease IRE1 (Homo sapiens) (O75460 19-977 limits assumed): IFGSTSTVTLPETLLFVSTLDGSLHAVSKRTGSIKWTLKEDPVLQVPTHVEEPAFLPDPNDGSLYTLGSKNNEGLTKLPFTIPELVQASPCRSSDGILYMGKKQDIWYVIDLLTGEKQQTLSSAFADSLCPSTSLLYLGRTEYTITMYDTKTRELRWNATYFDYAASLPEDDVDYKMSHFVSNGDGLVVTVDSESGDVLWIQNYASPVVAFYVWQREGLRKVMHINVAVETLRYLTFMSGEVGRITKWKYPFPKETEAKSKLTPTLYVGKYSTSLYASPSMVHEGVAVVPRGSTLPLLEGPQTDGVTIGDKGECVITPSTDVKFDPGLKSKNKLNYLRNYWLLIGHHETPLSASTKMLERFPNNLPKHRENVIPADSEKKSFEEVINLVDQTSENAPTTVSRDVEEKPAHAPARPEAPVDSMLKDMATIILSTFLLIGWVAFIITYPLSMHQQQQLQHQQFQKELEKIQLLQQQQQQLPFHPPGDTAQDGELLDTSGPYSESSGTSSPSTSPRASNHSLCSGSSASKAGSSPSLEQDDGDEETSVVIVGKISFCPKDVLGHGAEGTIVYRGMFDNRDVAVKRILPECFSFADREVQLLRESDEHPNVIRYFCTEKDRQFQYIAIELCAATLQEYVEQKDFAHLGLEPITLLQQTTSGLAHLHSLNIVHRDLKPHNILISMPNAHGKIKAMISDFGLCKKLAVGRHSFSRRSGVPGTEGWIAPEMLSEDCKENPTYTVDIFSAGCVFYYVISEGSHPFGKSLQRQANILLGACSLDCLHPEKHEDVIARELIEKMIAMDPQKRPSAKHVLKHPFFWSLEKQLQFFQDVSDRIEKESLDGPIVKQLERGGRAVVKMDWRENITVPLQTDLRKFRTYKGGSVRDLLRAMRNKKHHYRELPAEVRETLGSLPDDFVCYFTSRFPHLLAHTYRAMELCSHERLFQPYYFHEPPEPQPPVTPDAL

c1ccc(N2CCN(Cc3nc4ccccc4[nH]3)CC2)nc1 [ABT-724]
residual activity [1]: 100% | residual activity [2]: 59% | residual activity [3]: 100% | residual activity [4]: 100% | residual activity [5]: 100% | residual activity [6]: 100% | residual activity [7]: 100% | residual activity [8]: 65% | residual activity [9]: 100% | residual activity [10]: 100% | residual activity [11]: 97% | residual activity [12]: 100% | residual activity [13]: 91% | residual activity [14]: 95% | residual activity [15]: 100% | residual activity [16]: 100% | residual activity [17]: 100% | residual activity [18]: 100% | residual activity [19]: 100% | residual activity [20]: 100% | residual activity [21]: 100% | residual activity [22]: 100% | residual activity [23]: 100% | residual activity [24]: 100% | residual activity [25]: 100% | residual activity [26]: 100% | residual activity [27]: 100% | residual activity [28]: 100% | residual activity [29]: 100% | residual activity [30]: 94% | residual activity [31]: 100% | residual activity [32]: 85% | residual activity [33]: 100% | residual activity [34]: 96% | residual activity [35]: 100% | residual activity [36]: 100% | residual activity [37]: 100% | residual activity [38]: 100% | residual activity [39]: 98% | residual activity [40]: 100% | residual activity [41]: 100% | residual activity [42]: 100% | residual activity [43]: 78% | residual activity [44]: 100% | residual activity [45]: 100%

CSc1cccnc1N1CCN(Cc2nc3ccccc3[nH]2)CC1 [A-769]
residual activity [1]: 83% | residual activity [2]: 74% | residual activity [3]: 100% | residual activity [4]: 82% | residual activity [5]: 70% | residual activity [6]: 82% | residual activity [7]: 87% | residual activity [8]: 100% | residual activity [9]: 94% | residual activity [10]: 100% | residual activity [11]: 100% | residual activity [12]: 91% | residual activity [13]: 98% | residual activity [14]: 100% | residual activity [15]: 100% | residual activity [16]: 99% | residual activity [17]: 84% | residual activity [18]: 96% | residual activity [19]: 100% | residual activity [20]: 45% | residual activity [21]: 80% | residual activity [22]: 95% | residual activity [23]: 100% | residual activity [24]: 100% | residual activity [25]: 81% | residual activity [26]: 80% | residual activity [27]: 100% | residual activity [28]: 99% | residual activity [29]: 46% | residual activity [30]: 100% | residual activity [31]: 100% | residual activity [32]: 96% | residual activity [33]: 100% | residual activity [34]: 100% | residual activity [35]: 88% | residual activity [36]: 100% | residual activity [37]: 100% | residual activity [38]: 100% | residual activity [39]: 99% | residual activity [40]: 67% | residual activity [41]: 100% | residual activity [42]: 89% | residual activity [43]: 100% | residual activity [44]: 68% | residual activity [45]: 100%
